Source: BigSolDB 2.1

Nc1nc(N)c2nc(-c3ccccc3)c(N)nc2n1
solubility (mole fraction)
Settings	283.15 K	288.15 K	293.15 K	298.15 K	303.15 K	308.15 K	313.15 K	318.15 K	323.15 K
in 1,2-dichloroethane	1.72e-06	2.31e-06	3.52e-06	5.23e-06	7.52e-06	1.07e-05	1.7e-05	2.38e-05	3.55e-05
in 2-methoxyethanol	0.00188	0.00248	0.00338	0.00454	0.00605	0.00792	0.0106	0.014	0.0181
in DMSO	–	–	0.00201	0.00281	0.00381	0.00512	0.0068	0.00901	0.0118
in acetonitrile	2.52e-06	3.43e-06	5.17e-06	7.99e-06	1.16e-05	1.61e-05	2.43e-05	3.47e-05	4.99e-05
in ethyl acetate	2.91e-06	4.53e-06	7.32e-06	9.44e-06	1.42e-05	1.95e-05	2.8e-05	3.98e-05	6.09e-05
in isobutanol	2.88e-06	4.02e-06	6.12e-06	8.74e-06	1.23e-05	1.71e-05	2.55e-05	3.79e-05	5.43e-05
in isopropanol	2.02e-06	3.53e-06	4.92e-06	7.42e-06	1.06e-05	1.47e-05	2.08e-05	2.93e-05	4.19e-05
in methanol	2.91e-05	4.31e-05	6.36e-05	8.42e-05	0.000127	0.000169	0.00024	0.00032	0.000449
in n-butanol	3.32e-06	5.33e-06	8.08e-06	1.15e-05	1.61e-05	2.11e-05	3.11e-05	4.32e-05	6.48e-05
in n-methylformamide	0.000547	0.000726	0.00103	0.00143	0.00197	0.00264	0.00353	0.00461	0.00583
in n-propanol	4.24e-06	6.13e-06	9.12e-06	1.43e-05	2.02e-05	2.82e-05	3.88e-05	5.29e-05	7.03e-05
in water	1.07e-06	1.29e-06	1.51e-06	1.79e-06	2.16e-06	2.64e-06	3.13e-06	3.76e-06	4.61e-06
